From ChEMBL document CHEMBL4033665, “Synthesis and applications of benzohydroxamic acid-based histone deacetylase inhibitors” (Eur J Med Chem, 2017) come the findings set out here.

A value given as a limit tells only on which side of the number the result lay.

The target of assay [1] is Histone deacetylase HD1B (Zea mays, UniProt Q9ZTP8). Briefly: Inhibition of maize HD1B.
Assay [2] can be described thus: Inhibition of maize HD2. Also noted: species or system Zea mays.
A short description of assay [3]: Inhibition of maize HD1A. Also noted: species or system Zea mays.
The target of assay [4] is T1, Protein deacetylase HDAC6 (Homo sapiens, UniProt Q9UBN7).
T1 sequence (Q9UBN7 whole entry): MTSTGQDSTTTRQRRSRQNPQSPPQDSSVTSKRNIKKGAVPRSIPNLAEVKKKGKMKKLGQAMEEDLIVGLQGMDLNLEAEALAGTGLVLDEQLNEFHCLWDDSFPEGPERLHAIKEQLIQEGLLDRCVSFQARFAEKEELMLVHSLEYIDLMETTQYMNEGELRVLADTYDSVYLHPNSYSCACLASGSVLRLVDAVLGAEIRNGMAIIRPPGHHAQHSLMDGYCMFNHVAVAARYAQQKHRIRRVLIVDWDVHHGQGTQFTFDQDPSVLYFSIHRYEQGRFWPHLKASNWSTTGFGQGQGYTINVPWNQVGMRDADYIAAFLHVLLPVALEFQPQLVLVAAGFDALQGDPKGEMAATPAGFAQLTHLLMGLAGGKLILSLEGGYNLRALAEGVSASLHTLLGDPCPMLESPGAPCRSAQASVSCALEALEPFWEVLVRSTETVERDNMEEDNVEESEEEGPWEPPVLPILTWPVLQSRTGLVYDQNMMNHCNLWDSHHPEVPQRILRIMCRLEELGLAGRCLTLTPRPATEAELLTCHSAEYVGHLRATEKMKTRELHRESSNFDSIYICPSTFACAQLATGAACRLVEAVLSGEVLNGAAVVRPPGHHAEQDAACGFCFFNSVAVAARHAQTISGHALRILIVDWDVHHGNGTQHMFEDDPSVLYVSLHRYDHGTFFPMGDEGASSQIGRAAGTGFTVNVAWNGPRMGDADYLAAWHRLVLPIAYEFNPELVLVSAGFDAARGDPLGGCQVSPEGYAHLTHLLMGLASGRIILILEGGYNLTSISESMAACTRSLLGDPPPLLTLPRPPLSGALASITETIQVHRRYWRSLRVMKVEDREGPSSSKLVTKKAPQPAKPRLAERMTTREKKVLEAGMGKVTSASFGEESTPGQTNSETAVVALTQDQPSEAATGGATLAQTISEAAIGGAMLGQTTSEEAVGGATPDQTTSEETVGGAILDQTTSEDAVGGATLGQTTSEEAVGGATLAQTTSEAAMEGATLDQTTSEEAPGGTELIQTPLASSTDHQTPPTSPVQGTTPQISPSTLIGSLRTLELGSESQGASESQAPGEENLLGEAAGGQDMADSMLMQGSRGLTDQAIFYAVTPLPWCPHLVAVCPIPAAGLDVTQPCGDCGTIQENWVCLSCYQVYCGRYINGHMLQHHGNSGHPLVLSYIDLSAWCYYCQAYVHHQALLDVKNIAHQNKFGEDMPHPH
The experiment in a line: Inhibition of recombinant human HDAC6 using Boc-Lys(acetyl)-AMC as substrate after 1 hr by fluorescence assay.

In assay [5] the target is Histone deacetylase 3 (Homo sapiens, UniProt O15379). Briefly: Inhibition of HDAC3 (unknown origin).
Chain of Histone deacetylase 3 (O15379 whole entry): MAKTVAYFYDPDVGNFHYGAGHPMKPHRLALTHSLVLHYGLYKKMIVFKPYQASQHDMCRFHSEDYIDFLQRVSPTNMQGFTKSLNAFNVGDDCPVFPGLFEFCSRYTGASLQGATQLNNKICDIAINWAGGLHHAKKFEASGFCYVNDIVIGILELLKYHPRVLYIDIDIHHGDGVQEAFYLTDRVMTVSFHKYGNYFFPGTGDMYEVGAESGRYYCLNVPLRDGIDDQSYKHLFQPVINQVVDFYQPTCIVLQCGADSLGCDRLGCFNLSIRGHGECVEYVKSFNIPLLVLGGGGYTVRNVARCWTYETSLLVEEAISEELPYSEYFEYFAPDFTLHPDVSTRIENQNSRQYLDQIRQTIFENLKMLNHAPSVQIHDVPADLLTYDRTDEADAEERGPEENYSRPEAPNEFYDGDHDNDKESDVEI
Assay [6] concerns the target T2, Histone deacetylase 1 (Homo sapiens, UniProt Q13547). Briefly: Inhibition of HDAC1 (unknown origin).
Assay [7] deals with T3, Histone deacetylase 7 (Homo sapiens, UniProt Q8WUI4).
T3 sequence (Q8WUI4 whole entry): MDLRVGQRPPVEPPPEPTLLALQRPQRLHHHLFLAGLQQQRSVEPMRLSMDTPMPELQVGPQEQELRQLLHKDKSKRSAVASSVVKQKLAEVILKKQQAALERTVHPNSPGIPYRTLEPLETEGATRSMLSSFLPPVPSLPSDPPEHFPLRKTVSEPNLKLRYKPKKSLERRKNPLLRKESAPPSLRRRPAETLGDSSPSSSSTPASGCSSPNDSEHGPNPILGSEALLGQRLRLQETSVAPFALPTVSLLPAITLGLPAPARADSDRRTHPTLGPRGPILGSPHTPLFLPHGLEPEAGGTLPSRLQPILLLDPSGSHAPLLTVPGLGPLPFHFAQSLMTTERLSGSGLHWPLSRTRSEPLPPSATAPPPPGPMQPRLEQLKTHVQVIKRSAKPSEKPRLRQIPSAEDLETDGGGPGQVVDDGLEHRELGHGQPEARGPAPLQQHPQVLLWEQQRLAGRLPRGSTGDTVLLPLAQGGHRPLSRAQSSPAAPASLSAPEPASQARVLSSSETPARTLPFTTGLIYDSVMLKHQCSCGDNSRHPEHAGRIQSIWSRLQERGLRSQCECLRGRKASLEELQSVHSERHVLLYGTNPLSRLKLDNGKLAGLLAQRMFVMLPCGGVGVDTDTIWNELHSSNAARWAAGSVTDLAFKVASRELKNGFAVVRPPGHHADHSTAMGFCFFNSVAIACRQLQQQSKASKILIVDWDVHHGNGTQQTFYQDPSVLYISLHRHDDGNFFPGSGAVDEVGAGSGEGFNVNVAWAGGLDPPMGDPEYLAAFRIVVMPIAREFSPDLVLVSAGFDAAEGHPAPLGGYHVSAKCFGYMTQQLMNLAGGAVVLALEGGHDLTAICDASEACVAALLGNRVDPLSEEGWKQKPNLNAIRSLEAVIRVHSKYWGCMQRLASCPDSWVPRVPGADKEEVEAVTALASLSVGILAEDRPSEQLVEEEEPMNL
Briefly: Inhibition of HDAC7 (unknown origin).

For assay [8], the target named is T1, Protein deacetylase HDAC6. Briefly: Inhibition of recombinant N-terminal GST-tagged full length human HDAC6 expressed in baculovirus expression system in Sf9 insect cells using AMC-labeled RHKKAc as substrate by fluorescence method.
Assay [9] addresses T2, Histone deacetylase 1. The experiment in a line: Inhibition of C-terminal His-tag and C-terminal FLAG-tagged full length human HDAC1 expressed in baculovirus expression system using AMC-labeled RHKKAc as substrate by fluorescence method.
Assay [10] addresses T4, Protein deacetylase HDAC6 (Homo sapiens) (UniProt Q9UBN7).
T4 sequence (whole entry): T1 sequence (Q9UBN7 whole entry)
The experiment in a line: Inhibition of human HDAC6 at 100 uM after 90 mins by fluorescence assay.

In assay [11] the target is T5, Histone deacetylase 8 (Homo sapiens, UniProt Q9BY41).
T5 sequence (Q9BY41 whole entry): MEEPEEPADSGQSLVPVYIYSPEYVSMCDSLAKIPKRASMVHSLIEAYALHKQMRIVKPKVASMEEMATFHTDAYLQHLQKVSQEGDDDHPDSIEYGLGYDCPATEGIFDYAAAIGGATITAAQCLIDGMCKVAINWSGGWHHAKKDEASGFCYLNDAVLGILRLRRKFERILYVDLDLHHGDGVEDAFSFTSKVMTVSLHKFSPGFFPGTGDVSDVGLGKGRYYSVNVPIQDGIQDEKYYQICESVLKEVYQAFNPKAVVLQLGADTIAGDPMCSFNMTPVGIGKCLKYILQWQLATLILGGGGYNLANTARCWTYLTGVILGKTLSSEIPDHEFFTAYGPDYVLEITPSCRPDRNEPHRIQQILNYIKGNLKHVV
Briefly: Inhibition of human HDAC8 using ZMTFAL as substrate after 90 mins by fluorescence assay.

Assay [12] concerns the target T2, Histone deacetylase 1. Briefly: Inhibition of human HDAC1 using MAL as substrate at 100 uM after 90 mins by fluorescence assay.
Assay [13] concerns the target T1, Protein deacetylase HDAC6. The experiment in a line: Inhibition of human HDAC6 using RHKKAc as substrate by fluorescence assay.
Assay [14] addresses Histone deacetylase 5 (Homo sapiens, UniProt Q9UQL6). Briefly: Inhibition of human HDAC5 using RHKKAc as substrate by fluorescence assay.
Assay [15] addresses T2, Histone deacetylase 1. The experiment in a line: Inhibition of human HDAC1 using RHKKAc as substrate by fluorescence assay.
Assay [16] concerns the target Histone deacetylase 2 (Homo sapiens, UniProt Q92769). The experiment in a line: Inhibition of human HDAC2 using RHKKAc as substrate by fluorescence assay.
Assay [17] has as its target T5, Histone deacetylase 8. Briefly: Inhibition of human HDAC8 using RHKKAc as substrate by fluorescence assay.
Assay [18] has as its target T6, Polyamine deacetylase HDAC10 (Homo sapiens, UniProt Q969S8).
T6 sequence (Q969S8 whole entry): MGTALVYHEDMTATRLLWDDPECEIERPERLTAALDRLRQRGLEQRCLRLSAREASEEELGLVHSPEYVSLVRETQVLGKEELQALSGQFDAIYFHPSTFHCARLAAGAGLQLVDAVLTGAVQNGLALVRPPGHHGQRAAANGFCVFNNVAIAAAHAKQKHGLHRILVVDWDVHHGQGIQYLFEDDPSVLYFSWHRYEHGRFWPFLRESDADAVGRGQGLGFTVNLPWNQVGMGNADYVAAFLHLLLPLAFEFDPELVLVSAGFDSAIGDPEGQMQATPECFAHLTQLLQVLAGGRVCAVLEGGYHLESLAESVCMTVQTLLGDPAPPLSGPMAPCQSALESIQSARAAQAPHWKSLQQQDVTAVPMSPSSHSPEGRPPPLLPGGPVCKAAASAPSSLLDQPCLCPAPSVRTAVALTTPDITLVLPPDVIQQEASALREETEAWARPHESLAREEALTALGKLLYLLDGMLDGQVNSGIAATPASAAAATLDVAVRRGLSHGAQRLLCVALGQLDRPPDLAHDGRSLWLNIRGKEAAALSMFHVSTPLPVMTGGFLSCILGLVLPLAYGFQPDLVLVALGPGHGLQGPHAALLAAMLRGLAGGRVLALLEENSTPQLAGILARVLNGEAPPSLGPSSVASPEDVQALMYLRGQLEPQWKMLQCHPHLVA
Briefly: Inhibition of human HDAC10 using RHKKAc as substrate by fluorescence assay.

For assay [19], the target named is Histone deacetylase 4 (Homo sapiens, UniProt P56524). Briefly: Inhibition of human HDAC4 using RHKKAc as substrate by fluorescence assay.
Chain of Histone deacetylase 4 (P56524 whole entry): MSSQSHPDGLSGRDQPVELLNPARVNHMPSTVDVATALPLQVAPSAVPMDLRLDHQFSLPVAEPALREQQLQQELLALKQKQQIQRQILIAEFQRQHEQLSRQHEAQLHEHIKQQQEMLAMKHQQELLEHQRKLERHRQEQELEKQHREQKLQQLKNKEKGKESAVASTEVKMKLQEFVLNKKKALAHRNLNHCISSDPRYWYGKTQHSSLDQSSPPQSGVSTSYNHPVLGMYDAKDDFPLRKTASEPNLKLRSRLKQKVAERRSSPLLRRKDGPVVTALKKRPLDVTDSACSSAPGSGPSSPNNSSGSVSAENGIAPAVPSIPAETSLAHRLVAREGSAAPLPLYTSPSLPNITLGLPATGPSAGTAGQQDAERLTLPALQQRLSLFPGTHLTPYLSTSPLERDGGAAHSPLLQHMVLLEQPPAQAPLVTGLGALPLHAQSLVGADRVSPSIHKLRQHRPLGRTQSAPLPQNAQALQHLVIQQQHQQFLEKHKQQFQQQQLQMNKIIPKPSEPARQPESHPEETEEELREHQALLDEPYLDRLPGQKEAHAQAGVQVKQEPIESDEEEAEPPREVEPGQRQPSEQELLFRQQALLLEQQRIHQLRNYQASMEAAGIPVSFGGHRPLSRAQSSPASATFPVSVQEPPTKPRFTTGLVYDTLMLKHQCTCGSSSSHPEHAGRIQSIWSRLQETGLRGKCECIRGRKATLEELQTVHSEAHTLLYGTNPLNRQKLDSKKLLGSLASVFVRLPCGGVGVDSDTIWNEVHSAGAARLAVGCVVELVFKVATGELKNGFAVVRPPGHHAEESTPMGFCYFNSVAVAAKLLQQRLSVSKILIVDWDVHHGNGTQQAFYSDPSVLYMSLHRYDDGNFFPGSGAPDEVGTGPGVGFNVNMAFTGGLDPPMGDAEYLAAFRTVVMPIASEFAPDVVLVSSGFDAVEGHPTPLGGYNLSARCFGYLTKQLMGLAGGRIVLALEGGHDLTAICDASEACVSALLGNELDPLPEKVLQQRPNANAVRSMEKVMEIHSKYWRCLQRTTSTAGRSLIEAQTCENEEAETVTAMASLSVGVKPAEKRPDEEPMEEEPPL

T2 sequence (Q13547 whole entry): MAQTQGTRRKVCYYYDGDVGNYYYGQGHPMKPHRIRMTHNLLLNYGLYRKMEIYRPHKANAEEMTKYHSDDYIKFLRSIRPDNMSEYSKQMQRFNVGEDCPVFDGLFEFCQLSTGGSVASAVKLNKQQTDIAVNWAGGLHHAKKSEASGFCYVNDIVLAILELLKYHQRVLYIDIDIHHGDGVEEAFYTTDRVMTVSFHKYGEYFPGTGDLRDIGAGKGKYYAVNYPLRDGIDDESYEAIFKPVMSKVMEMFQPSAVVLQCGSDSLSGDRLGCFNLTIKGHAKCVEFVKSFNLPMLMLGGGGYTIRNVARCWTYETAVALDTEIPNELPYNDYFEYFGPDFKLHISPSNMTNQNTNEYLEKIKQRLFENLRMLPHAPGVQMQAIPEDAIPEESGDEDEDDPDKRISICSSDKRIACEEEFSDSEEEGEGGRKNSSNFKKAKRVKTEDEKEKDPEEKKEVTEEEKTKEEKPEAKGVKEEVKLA
Chain of Histone deacetylase HD1B (Q9ZTP8 whole entry): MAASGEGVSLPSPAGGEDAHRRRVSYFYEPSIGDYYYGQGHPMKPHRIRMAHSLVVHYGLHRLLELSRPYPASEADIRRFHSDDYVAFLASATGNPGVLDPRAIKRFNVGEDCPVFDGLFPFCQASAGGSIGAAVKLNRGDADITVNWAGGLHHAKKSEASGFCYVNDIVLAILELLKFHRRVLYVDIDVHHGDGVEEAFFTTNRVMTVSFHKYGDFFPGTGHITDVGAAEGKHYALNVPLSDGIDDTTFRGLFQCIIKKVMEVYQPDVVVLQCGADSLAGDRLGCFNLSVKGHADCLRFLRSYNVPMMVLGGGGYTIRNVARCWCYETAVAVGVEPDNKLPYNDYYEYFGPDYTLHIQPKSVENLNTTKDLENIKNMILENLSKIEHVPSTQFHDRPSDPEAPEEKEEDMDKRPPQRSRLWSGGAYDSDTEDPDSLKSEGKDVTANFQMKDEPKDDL
Chain of Histone deacetylase 5 (Q9UQL6 whole entry): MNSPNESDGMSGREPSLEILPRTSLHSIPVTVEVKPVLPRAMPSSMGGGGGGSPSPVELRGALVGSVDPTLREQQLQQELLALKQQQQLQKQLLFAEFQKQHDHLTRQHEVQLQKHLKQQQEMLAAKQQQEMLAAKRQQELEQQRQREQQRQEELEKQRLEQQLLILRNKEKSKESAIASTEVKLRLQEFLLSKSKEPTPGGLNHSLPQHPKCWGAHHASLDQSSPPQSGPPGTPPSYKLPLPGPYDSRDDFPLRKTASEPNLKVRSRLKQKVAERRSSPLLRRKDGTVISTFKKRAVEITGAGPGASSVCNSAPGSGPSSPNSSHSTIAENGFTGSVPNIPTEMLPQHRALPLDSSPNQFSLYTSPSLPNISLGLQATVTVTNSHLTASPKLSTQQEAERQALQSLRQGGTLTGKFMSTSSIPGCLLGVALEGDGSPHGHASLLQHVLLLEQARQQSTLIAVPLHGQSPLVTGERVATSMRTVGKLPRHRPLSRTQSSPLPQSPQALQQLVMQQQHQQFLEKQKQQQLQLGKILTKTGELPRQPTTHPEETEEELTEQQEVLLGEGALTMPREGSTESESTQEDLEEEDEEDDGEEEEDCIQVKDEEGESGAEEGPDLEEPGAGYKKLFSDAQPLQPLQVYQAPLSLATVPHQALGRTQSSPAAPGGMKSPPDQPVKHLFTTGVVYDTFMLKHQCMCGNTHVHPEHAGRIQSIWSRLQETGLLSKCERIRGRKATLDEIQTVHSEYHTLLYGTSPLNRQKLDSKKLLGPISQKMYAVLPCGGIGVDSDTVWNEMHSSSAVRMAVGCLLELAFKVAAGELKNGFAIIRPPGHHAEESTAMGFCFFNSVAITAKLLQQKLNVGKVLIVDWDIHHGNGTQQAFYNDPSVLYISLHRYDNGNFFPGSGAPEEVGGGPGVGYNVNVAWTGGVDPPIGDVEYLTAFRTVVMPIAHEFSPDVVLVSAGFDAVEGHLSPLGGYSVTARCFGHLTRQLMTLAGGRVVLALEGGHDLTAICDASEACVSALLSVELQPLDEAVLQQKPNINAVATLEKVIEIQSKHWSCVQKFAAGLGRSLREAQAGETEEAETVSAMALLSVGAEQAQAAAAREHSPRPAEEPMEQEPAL
Chain of Histone deacetylase 2 (Q92769 whole entry): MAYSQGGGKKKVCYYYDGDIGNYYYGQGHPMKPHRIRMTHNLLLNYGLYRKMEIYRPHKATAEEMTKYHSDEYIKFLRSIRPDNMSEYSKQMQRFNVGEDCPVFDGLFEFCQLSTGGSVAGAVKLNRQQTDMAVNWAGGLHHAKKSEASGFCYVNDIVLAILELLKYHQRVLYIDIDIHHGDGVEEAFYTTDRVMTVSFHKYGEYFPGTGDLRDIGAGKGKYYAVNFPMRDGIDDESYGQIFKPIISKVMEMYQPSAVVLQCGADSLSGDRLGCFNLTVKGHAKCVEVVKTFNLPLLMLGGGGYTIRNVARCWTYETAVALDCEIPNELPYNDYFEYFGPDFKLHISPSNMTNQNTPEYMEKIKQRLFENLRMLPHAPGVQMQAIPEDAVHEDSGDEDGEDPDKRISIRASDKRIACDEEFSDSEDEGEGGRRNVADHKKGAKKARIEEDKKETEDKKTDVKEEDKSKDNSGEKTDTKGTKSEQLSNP

Turning to `CCN(CC)Cc1ccc2cc(COC(=O)Nc3ccc(C(=O)NO)cc3)ccc2c1` [GIVINOSTAT], the IC50 in [1], in assay [2] and in [3] was 7.5 to 16 nM throughout.
In the case of `O=C(Cc1ccc(C(=O)NO)cc1)NC1=CC(=O)c2ccccc2C1=O`, in assay [4], the IC50 worked out at 6 nM.
Take `O=C(NO)c1ccc(NCc2csc3ccc(Br)cc23)cc1`: the IC50 in assay [5], in assay [6] and in assay [7] was > 10000 nM in each case.
On to `Cc1noc(C)c1-c1ccnc(N(Cc2ccc(C(=O)NO)cc2)c2cnccn2)c1`, for which the IC50 in assay [8] was ≤ 500 nM; in [9] it was ≥ 10000 nM.
On to `O=C1Nc2ccccc2/C1=N/NC(=S)Nc1ccc(C(=O)NO)cc1`, for which the inhibition was 41% in assay [10] and < 10% in assay [12]. Also, in assay [11], the IC50 is 15700 nM.
As for `CN1C(=O)C2CN(Cc3c2c2ccccc2n3Cc2ccc(C(=O)NO)cc2)C1=O` (centres undefined), the IC50 came to 4 nM in assay [13]; 1570 nM in assay [14]; 3620 nM in assay [15]; 7450 nM in assay [16]; 250 nM in [17]; 10500 nM in assay [18]. The compound further came in with an IC50 in assay [19] of 3820 nM.
